# Source: ChEMBL document CHEMBL5365518, “Synthesis and Validation of the First Cell-Impermeable Hsp90α-Selective Inhibitors” (ACS Med Chem Lett, 2023)
# Calls of active or inactive are those of the source. No cut-off for these calls is given here.
# How the values were obtained:
# [1] = biological target: Heat shock protein HSP 90-beta (Homo sapiens, UniProt P08238); assay: Binding affinity HSP90beta (unknown origin) incubated for 24 hrs by fluorescence polarization assay
# [2] = biological target: Heat shock protein HSP 90-alpha (Homo sapiens, UniProt P07900); assay: Binding affinity HSP90alpha (unknown origin) incubated for 24 hrs by fluorescence polarization assay
# OVCAR-8 [3] = assay: Antiproliferative activity against human OVCAR-8 cells assessed as inhibition of cell growth incubated for 72 hrs by MTS assay; assay type: functional, cell-based; settings: OVCAR-8, 72 h
# [4] = biological target: T1, Heat shock protein 75 kDa, mitochondrial (Homo sapiens, UniProt Q12931); assay: Binding affinity to Trap1 (unknown origin) incubated for 24 hrs by fluorescence polarization assay
# T1 sequence (Q12931 whole entry): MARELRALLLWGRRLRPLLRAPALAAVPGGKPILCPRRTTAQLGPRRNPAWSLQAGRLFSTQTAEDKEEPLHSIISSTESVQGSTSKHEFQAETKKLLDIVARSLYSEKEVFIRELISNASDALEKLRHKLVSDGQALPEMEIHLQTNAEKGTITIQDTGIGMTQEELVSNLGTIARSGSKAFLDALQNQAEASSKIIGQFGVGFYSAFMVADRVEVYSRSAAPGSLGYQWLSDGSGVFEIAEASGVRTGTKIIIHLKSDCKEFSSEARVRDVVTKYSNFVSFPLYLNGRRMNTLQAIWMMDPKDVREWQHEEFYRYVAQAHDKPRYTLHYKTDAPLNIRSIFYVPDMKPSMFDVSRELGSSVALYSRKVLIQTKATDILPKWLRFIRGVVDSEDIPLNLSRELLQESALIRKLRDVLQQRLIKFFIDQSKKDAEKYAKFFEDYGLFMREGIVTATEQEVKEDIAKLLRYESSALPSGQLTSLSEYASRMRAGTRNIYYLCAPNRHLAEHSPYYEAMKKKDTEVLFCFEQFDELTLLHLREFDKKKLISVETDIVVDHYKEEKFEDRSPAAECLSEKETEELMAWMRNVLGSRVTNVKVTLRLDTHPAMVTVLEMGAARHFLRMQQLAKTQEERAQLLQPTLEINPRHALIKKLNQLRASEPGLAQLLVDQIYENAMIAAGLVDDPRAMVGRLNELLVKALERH
# Endoplasmin = Endoplasmin (Homo sapiens, UniProt P14625); assay: Binding affinity to Grp94 (unknown origin) incubated for 24 hrs by fluorescence polarization assay
# Endoplasmin, sequence (P14625 whole entry): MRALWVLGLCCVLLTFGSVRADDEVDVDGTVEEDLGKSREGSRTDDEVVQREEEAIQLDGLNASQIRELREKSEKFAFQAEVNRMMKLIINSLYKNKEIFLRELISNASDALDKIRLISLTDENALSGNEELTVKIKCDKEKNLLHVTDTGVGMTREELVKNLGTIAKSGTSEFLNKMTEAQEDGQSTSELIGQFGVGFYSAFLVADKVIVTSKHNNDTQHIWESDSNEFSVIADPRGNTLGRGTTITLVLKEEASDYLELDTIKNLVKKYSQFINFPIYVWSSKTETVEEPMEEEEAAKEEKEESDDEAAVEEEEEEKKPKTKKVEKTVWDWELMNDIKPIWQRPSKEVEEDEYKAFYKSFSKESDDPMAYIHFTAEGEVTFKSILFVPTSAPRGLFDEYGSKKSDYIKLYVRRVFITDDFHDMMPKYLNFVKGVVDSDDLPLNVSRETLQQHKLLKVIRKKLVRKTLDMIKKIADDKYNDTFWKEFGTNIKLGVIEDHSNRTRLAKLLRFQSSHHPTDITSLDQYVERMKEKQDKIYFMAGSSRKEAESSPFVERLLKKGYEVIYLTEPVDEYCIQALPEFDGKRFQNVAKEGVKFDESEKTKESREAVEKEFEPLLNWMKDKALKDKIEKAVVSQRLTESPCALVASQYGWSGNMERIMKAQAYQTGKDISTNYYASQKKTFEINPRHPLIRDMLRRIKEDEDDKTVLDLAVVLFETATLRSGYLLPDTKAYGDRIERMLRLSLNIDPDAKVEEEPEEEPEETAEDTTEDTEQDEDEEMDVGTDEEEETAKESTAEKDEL
# [5] = Antiproliferative activity against human MCF-10A cells assessed as inhibition of cell growth incubated for 72 hrs by MTS assay; assay type: toxicity, cell-based
# [6] = Selectivity index, ratio of IC50 for binding affinity to HSP90beta (unknown origin) to IC50 for binding affinity to HSP90alpha (unknown origin)
# OVCAR-8 [7] = assay: Induction of heat shock response in human OVCAR-8 cells assessed as increase in HSP90 level at 100 nM incubated for 24 hrs by Western blot analysis; assay type: functional, cell-based
# [8] = Effective permeability of compound in PBS buffer at pH 7.4 incubated for 5 hrs by PAMPA assay; assay type: ADME; settings: read-out: Peff
# OVCAR-8 [9] = assay: Effect on TGFbetaR level in human OVCAR-8 cells at 1 to 100 uM incubated for 24 hrs by Western blot analysis; assay type: functional, cell-based; settings: dose 1-100 µM
# Heat shock protein HSP90 = Heat shock protein HSP90 (Homo sapiens, UniProt P07900+P08238); assay: Disruption of HSP90-mediated hERG channel maturation transfected in HEK293 cells assessed as appearance of fully glycosylated form at 100 uM incubated for 24 hrs by Western blot analysis; assay type: toxicity, cell-based; settings: hek293, 24 h
# OVCAR-8 [10] = assay: Effect on HER2 level in human OVCAR-8 cells at 1 to 100 uM incubated for 24 hrs by Western blot analysis; assay type: functional, cell-based; settings: dose 1-100 µM
# OVCAR-8 [11] = assay: Effect on TLR2 level in human OVCAR-8 cells at 1 to 100 uM incubated for 24 hrs by Western blot analysis; assay type: functional, cell-based; settings: dose 1-100 µM
# [12] = biological target: RAC-alpha serine/threonine-protein kinase (Homo sapiens) (UniProt P31749); assay: Induction of AKT degradation in human OVCAR-8 cells at 1 to 100 uM incubated for 24 hrs by Western blot analysis; assay type: cell-based; settings: dose 1-100 µM
# RAC-alpha serine/threonine-protein kinase (Homo sapiens), sequence (P31749 whole entry): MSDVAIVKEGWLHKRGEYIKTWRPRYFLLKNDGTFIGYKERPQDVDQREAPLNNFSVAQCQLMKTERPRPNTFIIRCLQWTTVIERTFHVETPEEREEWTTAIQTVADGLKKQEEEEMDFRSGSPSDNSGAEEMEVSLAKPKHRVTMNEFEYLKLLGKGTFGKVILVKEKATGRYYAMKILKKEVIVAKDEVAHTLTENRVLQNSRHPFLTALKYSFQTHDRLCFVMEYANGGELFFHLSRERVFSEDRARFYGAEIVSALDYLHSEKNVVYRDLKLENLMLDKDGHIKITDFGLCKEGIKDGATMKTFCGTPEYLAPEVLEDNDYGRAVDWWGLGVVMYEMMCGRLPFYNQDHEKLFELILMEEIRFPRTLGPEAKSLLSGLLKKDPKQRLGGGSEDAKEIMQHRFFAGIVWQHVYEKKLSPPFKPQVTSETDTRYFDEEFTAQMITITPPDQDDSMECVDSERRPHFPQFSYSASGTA
# OVCAR-8 [13] = assay: Induction of heat shock response in human OVCAR-8 cells assessed as increase in HSP90 level at 1 to 100 uM incubated for 24 hrs by Western blot analysis; assay type: functional, cell-based; settings: dose 1-100 µM
# [14] = biological target: RAC-alpha serine/threonine-protein kinase (Homo sapiens) (UniProt P31749); assay: Inhibition of AKT phosphorylation in human OVCAR-8 cells assessed as reduction in pAKT level incubated for 24 hrs by Western blot analysis; assay type: cell-based; settings: dose 1-100 µM
# [15] = biological target: RAC-alpha serine/threonine-protein kinase (Homo sapiens) (UniProt P31749); assay: Induction of AKT degradation in human OVCAR-8 cells incubated for 24 hrs by Western blot analysis; assay type: cell-based; settings: dose 1-100 µM
# Heat shock protein HSP 90-beta, sequence (P08238 whole entry): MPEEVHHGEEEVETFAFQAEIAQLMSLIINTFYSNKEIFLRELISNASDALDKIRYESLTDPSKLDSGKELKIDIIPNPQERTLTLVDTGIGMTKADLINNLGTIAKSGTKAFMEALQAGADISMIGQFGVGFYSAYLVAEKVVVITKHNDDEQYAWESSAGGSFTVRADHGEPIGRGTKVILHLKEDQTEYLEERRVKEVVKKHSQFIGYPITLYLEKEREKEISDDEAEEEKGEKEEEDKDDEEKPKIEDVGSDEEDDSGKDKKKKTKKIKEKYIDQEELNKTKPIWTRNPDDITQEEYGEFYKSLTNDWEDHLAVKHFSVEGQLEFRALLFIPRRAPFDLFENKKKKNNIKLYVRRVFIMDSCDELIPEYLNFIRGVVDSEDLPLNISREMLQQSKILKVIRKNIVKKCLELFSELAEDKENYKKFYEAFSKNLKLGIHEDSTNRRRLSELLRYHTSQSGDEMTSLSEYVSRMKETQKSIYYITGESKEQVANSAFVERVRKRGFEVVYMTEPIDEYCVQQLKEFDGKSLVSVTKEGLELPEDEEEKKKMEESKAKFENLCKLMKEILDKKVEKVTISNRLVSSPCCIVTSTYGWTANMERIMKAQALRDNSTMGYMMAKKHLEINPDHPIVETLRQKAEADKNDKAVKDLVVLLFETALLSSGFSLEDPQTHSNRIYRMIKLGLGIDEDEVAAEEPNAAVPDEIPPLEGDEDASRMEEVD
SMILES,IC50 [1],IC50 [2],Ratio IC50 [6],Papp at 5 h [8],also measured
Cc1ccc(Sc2cc(C(=O)N3Cc4ccc(OCC[N+](C)(C)[O-])cc4C3)ccc2O)cc1C,> 100 µM,> 100 µM,,,
Cc1ccc(Sc2cc(C(=O)N3Cc4ccc(OCCCC[N+](C)(C)[O-])cc4C3)ccc2O)cc1C,> 100 µM,90.3 µM,,,
Cc1ccc(Sc2cc(C(=O)N3Cc4ccc(OCCN(C)C)cc4C3)ccc2O)cc1C,96.1 µM,0.85 µM,,,IC50 (OVCAR-8 [3]): 13.5 µM; IC50 [4]: > 100 µM; IC50 (Endoplasmin): > 100 µM; IC50 at 72 h [5]: 11.5 µM
CC[N+](C)(C)CCCCOc1ccc2c(c1)CN(C(=O)c1ccc(O)c(Sc3ccc(C)c(C)c3)c1)C2,> 100 µM,7.94 µM,> 12,,
CCNC(=O)c1noc(-c2cc(C(C)C)c(O)cc2O)c1-c1ccc(CN2CCOCC2)cc1,,,,,Activity (OVCAR-8 [7]): Active
Cc1ccc(Sc2cc(C(=O)N3Cc4ccc(OCC[N+](C)(C)C)cc4C3)ccc2O)cc1C.O=C([O-])C(F)(F)F,> 100 µM,0.65 µM,,0.775 ×10⁻⁶ cm/s,IC50 (OVCAR-8 [3]): > 100 µM; IC50 [4]: > 100 µM; IC50 (Endoplasmin): > 100 µM; IC50 at 72 h [5]: > 100 µM
Cc1ccc(Sc2cc(C(=O)N3Cc4ccc(OCCC[N+](C)(C)Cc5ccccc5)cc4C3)ccc2O)cc1C.O=C([O-])C(F)(F)F,> 100 µM,0.96 µM,> 104,3.74 ×10⁻⁶ cm/s,
Cc1ccc(Sc2cc(C(=O)N3Cc4ccc(OCCC[N+](C)(C)[O-])cc4C3)ccc2O)cc1C,> 100 µM,43.1 µM,> 2,,
CC[N+](C)(C)CCOc1ccc2c(c1)CN(C(=O)c1ccc(O)c(Sc3ccc(C)c(C)c3)c1)C2,8.39 µM,0.36 µM,> 12,,
Cc1ccc(Sc2cc(C(=O)N3Cc4ccc(OCCC[N+](C)(C)C)cc4C3)ccc2O)cc1C.O=C([O-])C(F)(F)F,> 100 µM,0.34 µM,,0.644 ×10⁻⁶ cm/s,IC50 (OVCAR-8 [3]): > 100 µM; Activity (OVCAR-8 [9]): Active; Activity (Heat shock protein HSP90): Active; Activity (OVCAR-8 [10]): Active; Activity (OVCAR-8 [11]): Active; Activity [12]: inactive; IC50 [4]: > 100 µM; Activity (OVCAR-8 [13]): inactive; IC50 (Endoplasmin): > 100 µM; inhibition [14]: Dose-Dependent Effect; IC50 at 72 h [5]: > 100 µM
Cc1ccc(Sc2cc(C(=O)N3Cc4ccc(OCC[N+](C)(C)Cc5ccccc5)cc4C3)ccc2O)cc1C,> 100 µM,0.96 µM,> 104,,
Cc1ccc(Sc2cc(C(=O)N3Cc4ccc(OCCCN(C)C)cc4C3)ccc2O)cc1C,> 100 µM,0.51 µM,,2.99 ×10⁻⁶ cm/s,IC50 (OVCAR-8 [3]): 12.7 µM; IC50 [4]: > 100 µM; Activity (OVCAR-8 [13]): Active; IC50 (Endoplasmin): > 100 µM; Activity [15]: Dose-Dependent Effect; IC50 at 72 h [5]: 11.7 µM
CC[N+](C)(C)CCCOc1ccc2c(c1)CN(C(=O)c1ccc(O)c(Sc3ccc(C)c(C)c3)c1)C2.O=C([O-])C(F)(F)F,> 100 µM,> 100 µM,,1.05 ×10⁻⁶ cm/s,
Cn1c(=O)c2c(ncn2C)n(C)c1=O [CAFFEINE],,,,17.3 ×10⁻⁶ cm/s,
Cc1ccc(Sc2cc(C(=O)N3Cc4ccc(OCCCCN(C)C)cc4C3)ccc2O)cc1C,> 100 µM,0.79 µM,> 126,,
Cc1ccc(Sc2cc(C(=O)N3Cc4ccc(OCCCC[N+](C)(C)C)cc4C3)ccc2O)cc1C,> 100 µM,7.36 µM,> 13,,
